In one experiment the test system is CWR22Pc-R1-AD1 cells. Nature of the experiment: Cell proliferation assay and combination benefit calculation, CWR22Pc-R1-AD1. The format is cell-based. The note with it: 168 h, monotherapy, 7 days after treatment. On the procedure: (§1) Cell line identification was validated using the CellCheck assay (IDEXX Bioanalytics, Westbrook, ME, USA). All cell lines were validated free of virus Mycoplasma contamination using the MycoSEQ assay (Thermo Fisher Scientific, Waltham, MA, USA) or STAT-Myco assay (IDEXX Bioanalytics). All cell lines were grown RPMI-1640 growth media (Corning 17-105-CV) supplemented with 10% fetal bovine serum (FBS) or, when indicated, 10% charcoal stripped FBS (ThermoFisher Scientific, 12676029) and 2 mM glutamine.
(§2) Cells in 384-well or 96-well plates were dosed using an Echo 555 (LabCyte, San Jose, CA, USA) or using the HP D300e Digital Dispenser (HP Life Science Dispensing), respectively.
(§3) Live cell count pre- and post-treatment (7 days after treatment) was determined using CellTiter-Glo as per manufacturer's instructions (Promega, Madison, WI, USA; G7570).
(§4) Cell viability was determined with the Sytox Green assay as described in Davies 2012 and the AC50 calculated. The HSA (Highest Single Agent) Synergy Score was calculated according to Bernenbaum 1989.

The next experiment concerns ATM-KO LNCAP cells. Nature of the experiment: Cell proliferation assay and synergy in isogenic ATM-KO LNCAP cells. The experiment is classed as cell-based. The note with it: monotherapy; for AC50: Homo sapiens, LNCaP. The procedure:
as §2, §3, §4
An isogenic ATM-KO model in LNCAP cells was generated with CRISPR-Cas9 technology.
(§5) Using the method of example 1, these ATM-KO cell lines were determined to be sensitive to AZD5305, with an AC50 of 3 nM, in contrast to the parental (or control) LNCAP cell line which is not sensitive to AZD5305 monotherapy, with an AC50 greater than 10 μM.
(§6) The HSA (Highest Single Agent) Synergy Score was calculated according to Bernenbaum 1989 when the AZD5305 and enzalutamide were used in combination.

Another experiment concerns VCAP cells. In words: Cell proliferation assay and combination benefit calculation, VCAP. The format is cell-based. The settings on record: Homo sapiens, 168 h, monotherapy, 7 days after treatment. The procedure: as §1, §2, §3, §4
For another experiment, the system named is C901 tumours. Nature of the experiment: In vivo pre-clinical model C901 patient derived xenograft (PDX). The settings on record: 21 days, NMRI Nude mice, vs vehicle. On the procedure: C901 patient derived xenograft (PDX) model was engrafted subcutaneously onto the flank of donor mice and monitored once a week until ethical size (1000-2000 mm^3). When donor tumours reached ethical size, PDX fragments measuring approximately 20 mm^3 were engrafted in the study mice (male NMRI Nude mice, aged 6-9 weeks, supplied by Janvier labs).
The mice were dosed for 21 days, with the dose calculated for individual animals on day of dosing, and with a […] dosing volume.
Tumours were measured ×2 per week using digital calipers. The length and width of the tumour will be measured and volume calculated using the following formula: […]
The bodyweight of all mice in the study was measured and recorded 2 times per week; this information was used to calculate precise dosing for each animal.

A further experiment has as its system LnCAP cells. In words: Cell proliferation assay and combination benefit calculation, LnCAP. The experiment is classed as cell-based. The note with it: Homo sapiens, monotherapy. On the procedure: as §1, §2, §3, §4, §5, §6
For a further experiment, the system named is LNCaP tumours. Nature of the experiment: In vivo pre-clinical model LNCaP (subcutaneous xenograft). The settings on record: 42 days, NOD SCID mice, vs vehicle. On the procedure:
LNCaP cells (1×10^7 cells 1:1 in Matrigel) were implanted subcutaneously onto the flank of male NOD SCID mice (aged 5-8 weeks weighing approximately 25-30 g, supplied by Charles River) using a 23-gauge needle.
The mice were dosed for 42 days, with the dose calculated for individual animals on day of dosing, and with a […] dosing volume.
Tumours were measured ×3 per week using digital calipers. The length and width of the tumour will be measured and volume calculated using the following formula: […]
The bodyweight of all mice in the study was measured and recorded 3 times per week; this information was used to calculate precise dosing for each animal.

Another experiment relates to C4-2 cells. In words: Cell proliferation assay and combination benefit calculation, C4-2. The format is cell-based. The settings on record: 168 h, monotherapy, 7 days after treatment. On the procedure:
as §1, §2, §3, §4

Where [1] appears, read: 168 h, LnCAP, 7 days after treatment.
Setting [2] is: LnCAP parental (control), Example 2.

Regarding `CCc1cc2ncc(CN3CCN(c4ccc(C(=O)NC)nc4)CC3)cc2[nH]c1=O` [AZD5305, 5-{4-[(7-ethyl-6-oxo-5,6-dihydro-1,5-naphthyridin-3-yl)methyl]piperazin-1-yl}-N-methylpyridine-2-carboxamide], the AC50 was 0.0316 µM in the experiment on CWR22Pc-R1-AD1 cells; 0.003 µM with ATM-KO LNCAP cells (ATM-KO cell lines (clone.1 and clone.2)); 1.6 µM in the experiment on VCAP cells; 12 µM in the experiment on LnCAP cells (setting [1]); > 10 µM in the experiment with LnCAP cells (setting [2]); 20 µM in the experiment on C4-2 cells. In the experiment with C901 tumours (AZD5305 1 mg/kg QD), this molecule gave a TGI of 90%. Also, the “tumour growth inhibition (TGI)” value in the experiment with LNCaP tumours (AZD5305 1 mg/kg QD) is “no or minimal (4%)”.

Regarding `CNC(=O)c1ccc(N2C(=S)N(c3ccc(C#N)c(C(F)(F)F)c3)C(=O)C2(C)C)cc1F` [Enzalutamide, 4-(3-(4-cyano-3-(trifluoromethyl)phenyl)-5,5-dimethyl-4-oxo-2-thioxoimidazolidin-1-yl)-2-fluoro-N-methylbenzamide], the half-maximal activity concentration (AC50) in the experiment on CWR22Pc-R1-AD1 cells is 9.59 µM; in the experiment with ATM-KO LNCAP cells (LnAP-ATM-KO-CL.1) it was > 10 µM; in the experiment with VCAP cells it was 2.94 µM; in the experiment on LnCAP cells (setting [1]) it was 1.41 µM; in the experiment on LnCAP cells (setting [2]), > 10 µM; in the experiment with C4-2 cells, 8.33 µM. The “Sensitivity of the cell lines” value with ATM-KO LNCAP cells (the cell lines of Example 2 (LNCAP parental and ATM-KO)) is listed as “No sensitivity could be measured”. The same molecule gave an inhibition of tumour growth (TGI) with C901 tumours (enzalutamide 60 mg/kg QD) of 92%. In the experiment with LNCaP tumours (enzalutamide 4 mg/kg QD), the “tumour growth inhibition (TGI)” value is on record as “no or minimal (4%)”.

Source of the values: US20250213556A1, “COMBINATION THERAPY FOR TREATING CANCER” (AstraZeneca AB, priority 2022, published 2025).
